Test results taken from patent publication US20250186545A1, “RECOMBINANT PROTEIN FOR ULCERATIVE COLITIS TREATMENT OR PREVENTION AND COMPOSITION FOR ULCERATIVE COLITIS TREATMENT OR PREVENTION CONTAINING THE SAME” (NEXEL CO., LTD., priority 2021, published 2025).

What was measured:
Format in all cases: in vivo, C57BL/6 mice
[1] = system: DSS-induced colitis model; assay: Histopathology (H&E) of large intestinal mucosa: erosion and epithelial hyperplasia; study of FIG. 10
Excerpt: (§1) First, in the case of an animal model for mice in which ulcerative colitis is induced using DSS (Dextran sulfate sodium), bloody stool, weight loss, large intestinal shrinkage, and mucosal ulcers occur, and histologically, damage occurs in large intestinal epithelial cells, so that the intestinal glands of an epithelial layer fall off without inflammation. Further, the amount of f various immune substances in the mucosa increases to cause intestinal inflammation. For this reason, DSS has been widely used to create experimental animal models.
(§2) Specifically, in a DSS-induced colitis model in which 9-week-old female C57BL/6 mice were allowed to freely ingest 2% DSS, an experiment was conducted assuming that one C57BL/6 mouse ingested 5 ml of water containing 2% DSS per day.
(§3) For 7 days, only water containing 2% DSS without any treatment was provided to the mice, and for 5 days after the 7th day, water without 2% DSS was provided, and simultaneously, various comparative substances, including NP-011 protein, were fed at various concentrations by injection into the caudal vein, thereby creating an animal model of inducing ulcerative colitis.
(§4) Lastly, as shown in FIG. 6 and FIG. 10, a third experimental group ‘NP-011’ that is an experimental group was supplied with only water containing 2% DSS from day 0 to day 7, was supplied with plain water from day 7 to day 14, and NP-011 recombinant protein of 320 μg/kg was administered once a day for 5 days starting from day 7, a total of 5 times.
Form the results in FIG. 7 and Table 1, it can be confirmed that the degrees of crypt damage, inflammation severity, and inflammation extent in the mucosa were reduced in the order of MFG-E8 160 μg/kg, NP-011 80 μg/kg, and NP-011 320 μg/kg compared with the positive control group after induction of ulcerative colitis, so that the overall degree of damage to the large intestinal mucosa was lowered.
Then, the tissue fixed with 4% paraformaldehyde was subjected to staining (Hematoxylin & Eosin stain) and histopathological examination by KP&T Co., Ltd. The pathological interpretation was made with reference to INHAND. The degrees of erosion and epithelial hyperplasia in the mucosa of the large intestinal tissue were measured for comparison of lesions in the respective animal model groups, and results thereof are shown in FIG. 11 and Table 2. (Reference-J Toxicol Pathol 2016; 29 (1 Suppl)): 1S-124S)

[2] = system: DSS-induced colitis model; assay: Body weight change, study of FIG. 10 (FIG. 12, Tables 4 and 5); details: for Change of original weight: AD group
Excerpt: as §1, §2, §3
Lastly, as shown in FIG. 6 and FIG. 10, a third experimental group ‘NP-011’ that is an experimental group was supplied with only water containing 2% DSS from day 0 to day 7, was supplied with plain water from day 7 to day 14, […] for 5 days starting from day 7, a total of 5 times.
In addition, increase or decrease in body weight was analyzed on the basis of the original body weight, and the level of weight increase or decrease compared with the positive control group was also analyzed.

[3] = system: DSS-induced colitis model; assay: Body weight change, study of FIG. 6 (FIG. 8, Table 3); details: MFG-E8 160 μg/kg
Excerpt: as §1, §2, §3, §4
First, using the animal models corresponding to the ‘NTC’ control group, the ‘UC CONTROL’ control group, the ‘MFG-E8’ experimental group, the ‘NP-011’ second experimental group, and the ‘NP-011’ third experimental group, body weight was measured daily for each animal model group before drug administration to reduce errors due to the administration.
In addition, increase or decrease in body weight was analyzed compared with the positive control group, and comprehensive results thereof are shown in FIG. 8 and Table 3.

[4] = system: DSS-induced colitis model; assay: Histopathology (H&E) of large intestinal mucosa: crypt damage, inflammation severity, inflammation extent; study of FIG. 6
Excerpt: First, in the case of an animal model for mice in which ulcerative colitis is induced using DSS (Dextran sulfate sodium), bloody stool, weight loss, large intestinal shrinkage, and mucosal ulcers occur, and histologically, damage occurs in large intestinal epithelial cells, so that the intestinal glands of an epithelial layer fall off without inflammation. Further, the amount of f various immune substances in the mucosa increases to cause intestinal inflammation. For this reason, DSS has been widely used to create experimental animal models. Specifically, in a DSS-induced colitis model in which 9-week-old female C57BL/6 mice were allowed to freely ingest 2% DSS, an experiment was conducted assuming that one C57BL/6 mouse ingested 5 ml of water containing 2% DSS per day. For 7 days, only water containing 2% DSS without any treatment was provided to the mice, and for 5 days after the 7th day, water without 2% DSS was provided, and simultaneously, various comparative substances, including NP-011 protein, were fed at various concentrations by injection into the caudal vein, thereby creating an animal model of inducing ulcerative colitis. […] Lastly, as shown in FIG. 6 and FIG. 10, a third experimental group 'NP-011' that is an experimental group was supplied with only water containing 2% DSS from day 0 to day 7, was supplied with plain water from day 7 to day 14, and NP-011 recombinant protein of 320 μg/kg was administered once a day for 5 days starting from day 7, a total of 5 times. First, using the animal models corresponding to the 'NTC' control group, the 'UC CONTROL' control group, the 'MFG-E8' experimental group, the 'NP-011' second experimental group, and the 'NP-011' third experimental group, for each animal model group, the cecum was removed from a large intestinal tissue, and 1 to 2 cm of the proximal and 1 cm of the anus were secured and fixed with 4% paraformaldehyde. Then, the tissue fixed with 4% paraformaldehyde was subjected to staining (Hematoxylin & Eosin stain) and histopathological examination by KP&T Co., Ltd. The pathological interpretation was made with reference to […] (International Harmonization of Nomenclature and Diagnostic Criteria for Lesions) which is an international standard toxicology glossary. The degrees of crypt damage, inflammation severity, and inflammation extent in the mucosa of the large intestinal tissue were measured for comparison in the respective animal model groups, and results thereof are shown in FIG. 7 and Table 1. (Reference-J Toxicol Pathol 2016; 29 (1 Suppl): 1S-[…])

[5] = system: DSS-induced colitis model; assay: Colon length, study of FIG. 6 (FIG. 9); details: MFG-E8 160 μg/kg; 3 days after the last administration
Excerpt: as §1, with “models. […]” for “models.”
First, using the animal models corresponding to the \NTC′ control group, the ‘UC CONTROL’ control group, the ‘MFG-E8’ experimental group, the ‘NP-011’ second experimental group, and the ‘NP-011’ third experimental group, the large intestine was extracted separately for each animal model group, the colon length was analyzed, and the results thereof are shown in FIG. 9.
Specifically, to analyze the colon length, each animal model was euthanized by gradual increase in carbon dioxide 3 days after the last administration, and the large intestine was extracted. The extracted large intestine was photographed with a length measuring device (30 cm ruler), and the obtained photograph was quantified using image J.

[6] = MGF-E8 160 μg/kg, once a day x5 from day 7

Adalimumab
Epithelial hyperplasia score ([1]; AD 4 mg/kg): 4.2 | Erosion, mucosa ([1]; AD 4 mg/kg): 0.8 | Group total average ([1]; AD 4 mg/kg, erosion + hyperplasia): 5.0 | degrees of erosion and epidermal hyperplasia in the mucosa of large intestinal tissues ([1]; Adalimumab group): reduced | Dunnett's multiple comparisons test UC VS AD, Summary (body weight) ([2]; 10 days): ** (** P<0.01) | weight loss ([2]; Adalimumab group, Cyclosporine A group, NP-011 groups (20 to 80 μg/kg)): weight loss was observed | Change of original weight ([2]; Day 1): 0.161 g | Change of original weight ([2]; Day 2): 0.237 g | Change of original weight ([2]; Day 3): 0.438 g | Change of original weight ([2]; Day 4): 0.411 g | Change of original weight ([2]; Day 5): -0.217 g | Change of original weight ([2]; Day 6): -0.846 g | Change of original weight ([2]; Day 7): -1.464 g | Change of original weight ([2]; Day 8): -1.702 g | Change of original weight ([2]; Day 9): -1.683 g | Change of original weight ([2]; Day 10): -1.444 g | Dunnett's multiple comparisons test UC VS AD, Summary (body weight) ([2]; Day 11): **** (**** P<0.0001) | Change of original weight ([2]; Day 11): -0.471 g | Dunnett's multiple comparisons test UC VS AD, Summary (body weight) ([2]; Day 12): **** (**** P<0.0001) | Change of original weight ([2]; Day 12): -0.035 g | Dunnett's multiple comparisons test UC VS AD, Summary (body weight) ([2]; Day 13): **** (**** P<0.0001) | Change of original weight ([2]; Day 13): -0.467 g

B1: milk fat globule-EGF factor 8 (protein, UniProt Q08431 24-387, looked up)
Lactadherin: LDICSKNPCHNGGLCEEISQEVRGDVFPSYTCTCLKGYAGNHCETKCVEPLGLENGNIANSQIAASSVRVTFLGLQHWVPELARLNRAGMVNAWTPSSNDDNPWIQVNLLRRMWVTGVVTQGASRLASHEYLKAFKVAYSLNGHEFDFIHDVNKKHKEFVGNWNKNAVHVNLFETPVEAQYVRLYPTSCHTACTLRFELLGCELNGCANPLGLKNNSIPDKQITASSSYKTWGLHLFSWNPSYARLDKQGNFNAWVAGSYGNDQWLQVDLGSSKEVTGIITQGARNFGSVQFVASYKVAYSNDSANWTEYQDPRTGSSKIFPGNWDNHSHKKNLFETPILARYVRILPVAWHNRIALRLELLGC
notes: milk fat globule-EGF factor 8 (MFG-E8) protein, comparator
Dunnett's multiple comparisons test UC VS MFG-E8, Summary (body weight) ([3]; Day 7): ns | Dunnett's multiple comparisons test UC VS MFG-E8, Summary (body weight) ([3]; Day 8): ns | Dunnett's multiple comparisons test UC VS MFG-E8, Summary (body weight) ([3]; Day 9): ns | Dunnett's multiple comparisons test UC VS MFG-E8, Summary (body weight) ([3]; Day 10): ns | Dunnett's multiple comparisons test UC VS MFG-E8, Summary (body weight) ([3]; Day 11): ns | degrees of crypt damage, inflammation severity, and inflammation extent in the mucosa compared with the positive control group ([4]; MFG-E8 160 μg/kg): reduced | Crypt Damage [4, 6]: 2.9 | Inflammation Extent [4, 6]: 1.2 | Inflammation Severity ([4]; MGF-E8 160 μg/kg, once a day x5 from day 7, caudal vein): 1.1 | Group total average ([4]; MGF-E8 160 μg/kg, sum of severity, extent, crypt damage): 5.2 | colon length shrinkage suppression effect compared with the non-administration control group [5]: statistically significant increase in the colon length shrinkage suppression effect
